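These data come from cells grown in 96-well plates and exposed to compound for 48 hours at five concentrations. Here, GI50 denotes the concentration required for 50% inhibition of growth. TGI: concentration producing complete growth inhibition.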
Legend:
Test in all cases: growth of human tumour cells (NCI), 48 h
[1] = tested on: SW-620 colon
[2] = tested on: MOLT-4 leukemia
[3] = tested on: A498 renal
[4] = tested on: UACC-257 melanoma
[5] = tested on: SF-295 CNS
[6] = tested on: SK-MEL-5 melanoma
[7] = tested on: K-562 leukemia
[8] = tested on: M14 melanoma
[9] = tested on: SF-268 CNS
[10] = tested on: PC-3 prostate

Structure (SMILES) | TGI [1] [µM] | TGI [2] [µM] | TGI [3] [µM] | TGI [4] [µM] | TGI [5] [µM] | TGI [6] [µM] | TGI [7] [µM] | TGI [8] [µM] | TGI [9] [µM] | GI50 [1] [µM] | GI50 [2] [µM] | GI50 [3] [µM] | GI50 [9] [µM] | GI50 [4] [µM] | GI50 [5] [µM] | GI50 [6] [µM] | GI50 [7] [µM] | GI50 [10] [µM] | TGI [10] [µM] | GI50 [8] [µM]
COC(=O)/C(C#N)=C1\N=NNN1CCCN1CCOCC1 | > 100 | > 100 | > 100 | > 100 | > 100 | > 100 | > 100 | > 100 | – | – | – | – | – | – | – | – | – | – | – | –
COc1cc2ccn3c4cc(OC)c(OC)cc4cc3c2cc1OC | > 100 | > 100 | > 100 | > 100 | > 100 | – | > 100 | > 100 | > 100 | – | – | – | – | – | – | – | – | – | – | –
S=C(Nc1ccccc1)Nc1[nH]c(=S)sc1-c1nc2ccccc2[nH]1 | > 100 | > 100 | > 100 | > 100 | > 100 | > 100 | > 100 | > 100 | > 100 | – | – | – | – | – | – | – | – | – | – | –
CC1CCC(O)C(C(O)CC2CC(=O)N(C)C(=O)C2)C1 (stereo not drawn) | > 100 | > 100 | > 100 | > 100 | > 100 | – | > 100 | > 100 | > 100 | – | – | – | – | – | – | – | – | – | – | –
CC1OC(=O)N(CCCC=C2SCCCS2)C1=O (stereo not drawn) | > 100 | > 100 | > 100 | > 100 | > 100 | – | > 100 | > 100 | > 100 | – | – | – | – | – | – | – | – | – | – | –
CC(C)OP(=O)(CP(=O)(OC(C)C)OC(C)C)OC(C)C.[CH3][Sn]([Br])([Br])[Br] | > 100 | > 100 | > 100 | > 100 | > 100 | > 100 | > 100 | – | > 100 | > 100 | > 100 | > 100 | > 100 | > 100 | > 100 | > 100 | > 100 | – | – | –
COc1cc2c3c(c1OC)-c1ccccc1C(C(OC(C)=O)c1ccccc1)C3N(C)CC2 (stereo not drawn) | > 100 | > 100 | > 100 | > 100 | > 100 | 49.6 | – | > 100 | > 100 | – | – | – | – | – | – | – | – | – | – | –
CC[C@@]1(OC(=O)CN)C(=O)OCc2c1cc1n(c2=O)Cc2cc3cc(N)ccc3nc2-1 | > 100 | – | 0.337 | 1.66 | > 100 | 0.141 | – | 0.122 | – | 0.0231 | < 0.01 | 0.0322 | < 0.01 | 0.0887 | < 0.01 | 0.0181 | – | 0.0711 | > 100 | < 0.01
O=C1c2ccccc2-c2cc3ccccc3c(=O)n21 | > 100 | – | – | > 100 | > 100 | > 100 | > 100 | > 100 | > 100 | – | – | – | – | – | – | – | – | – | > 100 | –
O=C(O)c1cc(Cl)cc(NC(=O)C(Cl)Cl)c1Cl | > 100 | > 100 | > 100 | > 100 | > 100 | > 100 | > 100 | > 100 | > 100 | – | – | – | – | – | – | – | – | – | – | –
